According to patent publication US20240300886A1, “ARYLCYCLOHEXYLAMINE DERIVATIVES AND THEIR USE IN THE TREATMENT OF PSYCHIATRIC DISORDERS” (GILGAMESH PHARMACEUTICALS, INC., priority 2021, published 2024):

Assays:
[1] = system: immobility time in the FST; assay: Forced swim test (FST) in rats; type: in vivo, Sprague-Dawley rats; settings: s.c., 23.5-h pre-treatment time
Procedure: Disclosed compounds were tested in the forced swim test (FST) in rats with a 23.5-h pre-treatment time according to the following procedures.
Animals. Male Sprague-Dawley rats, aged 8-10 weeks, were used in the experiments. Animals were housed in groups of 2 under controlled temperature (22±3° C.) and relative humidity (30-70%) conditions, with 12-hour light/dark cycles, and with ad libitum food and water. All efforts were made to minimize suffering.
Drugs and Drug Administration. Test compounds, saline vehicle, and the positive control desipramine were administered subcutaneously (s.c.), with doses calculated based on the freebase. Normal saline was used as the vehicle for compounds provided as the HCl salt, while saline acidified with 1-2 molar equivalents of HCl was used as the vehicle for compounds provided as the freebase (to form the soluble HCl salt in situ). All compounds were administered at a volume of 5 mL/kg. Test compounds and vehicle were administered 0.5 h after the start of the training swim (Swim 1) and 23.5 h before the test swim (Swim 2). […]
Behavioral scoring was conducted by observers who were blind to the treatment groups. Animals were continuously observed during Swim 2 and the total time spent engaging in the following behaviors was recorded: immobile, swimming, and climbing. […]

[2] = Oral bioavailability in monkeys (plasma PK); type: in vivo, Cynomolgus monkeys; settings: for AUC(0-inf): male, cynomolgus monkey
Procedure: Animals. Male Cynomolgus monkeys were used in these studies. Animals were randomly assigned to treatment groups and were fasted overnight before dosing.
(§1) Drugs. Compound 2R was dissolved in a vehicle consisting of normal saline. It was then administered intravenously (iv) or orally (po) at a dose of 1 mg/kg (calculated based on freebase) and at a volume of 2 mL/kg body weight (n=3 per dosing route).
(§2) Sample Collection and Bioanalysis. Blood samples (approximately 500 μL) were collected under manual restraint from the cephalic vein at 0.08, 0.25, 0.5, 1, 2, 4, 8, and 24 h ([…]) into K2EDTA tubes and placed on wet ice. Immediately after blood collection, plasma was harvested by centrifugation at 3,000 g for 5 min at 4° C. within 15 minutes of collection and subsequently stored at −70±10° C. until bioanalysis. For bioanalysis, for diluted plasma samples, an aliquot of 2 μL sample was diluted with 18 μL blank matrix and the dilution factor was 10. For non-diluted samples, an aliquot of 20 μL sample was added with 300 μL internal standard (diclofenac, 60 ng/mL) in acetonitrile. The mixture was vortexed for 10 minutes and centrifuged at 5,800 rpm for 10 minutes. 90 μL of supernatant was transferred to a 96 well plate and analyzed with a fit-for-purpose LC-MS/MS method, with authentic samples of each analyte used for calibration and identification.
Data Analysis. Pharmacokinetic parameters were estimated using the non-compartmental analysis tool of Phoenix® a WinNonlin software (Ver 8.2).

[3] = Oral bioavailability in minipigs (plasma PK); type: in vivo, Bama minipigs; settings: for AUC(0-inf): male, Bama
Procedure: Animals. Male Bama minipigs were used in these studies. Animals were randomly assigned to treatment groups and were fasted overnight before dosing.
as §1, §2
Data Analysis. Pharmacokinetic parameters were estimated using the non-compartmental analysis tool of Phoenix® WinNonlin software (Ver 8.2).

[4] = Stability in liver microsomes (Example 21), CD-1 mouse; type: in vitro ADME; settings: male, pH 7.4, CD-1 Mouse liver microsomes, 0.5 mg/mL protein
Procedure: General Procedure. Briefly, test compounds (final concentration 1 μM) were incubated in duplicate with liver microsomes from male animals of the indicated species (final protein concentration 0.5 mg/mL) in 50 mM sodium phosphate buffer (pH 7.4) with or without NADPH (1 mM). Total incubation volume was 500 μL. At 0, 5, 15, 30, and 60 min, aliquots of 50 μL were withdrawn, quenched with acetonitrile (150 μL), and analyzed for parent compound remaining using a fit-for-purpose LC-MS/MS method. Intrinsic clearance and half-life were calculated. Clearance values below zero were rounded to zero.

| SMILES | immobility time in the FST relative to vehicle [1] | AUC(0-inf) ([2]; monkey plasma, 1 mg/kg iv, read-out: AUC0-inf (iv) (converted)) | AUC(0-inf) ([2]; monkey plasma, 1 mg/kg po, read-out: AUC0-inf (po) (converted)) | F ([2]; monkey plasma, 1 mg/kg) | oral bioavailability (in words) ([2]; monkeys, 1 mg/kg) | AUC(0-inf) ([3]; minipig plasma, 1 mg/kg iv, read-out: AUC0-inf (iv) (converted)) | AUC(0-inf) ([3]; minipig plasma, 1 mg/kg po, read-out: AUC0-inf (po) (converted)) | F ([3]; minipig plasma, 1 mg/kg) | oral bioavailability (in words) ([3]; minipigs, 1 mg/kg) | microsomal CLint at 1 μM [4] |
| --- | --- | --- | --- | --- | --- | --- | --- | --- | --- | --- |
| N[C@]1(c2ccc(F)cc2)CCCCC1=O [Compound 1S, (S)-2-amino-2-(4-fluorophenyl)cyclohexan-1-one] | reduced immobility time |  |  |  |  |  |  |  |  |  |
| CN[C@@]1(c2ccc(F)cc2)CCCCC1=O [Compound 2R, (R)-2-(4-fluorophenyl)-2(methylamino)cyclohexan-1-one] | reduced immobility time | 964 ng·h/mL | 259 ng·h/mL | 27% | moderate | 566 ng·h/mL | 242 ng·h/mL | 42.7% | good |  |
| CN[C@]1(c2ccc(F)cc2)CCCCC1=O [Compound 2S, (S)-2-(4-fluorophenyl)-2-(methylamino)cyclohexan-1-one] |  |  |  |  |  |  |  |  |  | 3.5 µL/min/mg |
